From patent US7491819B1 (priority 2004, dated 2009) come the findings set out here.

One test has as its target T1, HIV-integrase (Human immunodeficiency virus type 1 group M subtype B, UniProt P12497).
T1 construct: Recombinant integrase (0.26 ng) was incubated with the beads
The experiment in a line: HIV-Integrase Inhibition Activity (SPA bead strand-transfer assay). In kind it is biochemical. The following applies: Table 2a; read-out: HIV-Integrase Inhibition Activity. An outline of the steps:
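Biotin-labelled substrate DNA (5 pmole) bound to streptavidin SPA beads, preloaded with recombinant integrase (0.26 ng) for 90 min at 37° C, then washed. Inhibitors and 0.1 fmol P33-labelled target DNA added; reaction stopped with 10 mM EDTA. Integration read as scintillation CPM.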

Another test concerns NL-Rluc virus. The experiment in a line: Inhibition of HIV replication (recombinant NL-Rluc virus, luciferase). In kind it is cell-based. The following applies: Human immunodeficiency virus 1, read-out: Inhibition of HIV replication.

As for `CC1(C)COP(=O)(c2cc(F)ccc2CNC(=O)c2nc3n(c(=O)c2O)CCOC3(C)C)OC1` [Example 294, Pyrimido[2,1-c][1,4]oxazine-2-carboxamide, N-[[2-(5,5-dimethyl-2-oxido-1,3,2-dioxaphosphorinan-2-yl)-4-fluorophenyl]methyl]-4,6,7,9-tetrahydro-3-hydroxy-9,9-dimethyl-4-oxo-], the IC50 on HIV-integrase lay within 2 to 100 nM. In addition, the EC50 in the test on NL-Rluc virus is 3 to 100 nM.
In the case of `CC1(C)OCCn2c1nc(C(=O)NCc1ccc(F)cc1-n1ccnn1)c(O)c2=O` [Example 295, Pyrimido[2,1-c][1,4]oxazine-2-carboxamide, N-[[4-fluoro-2-(1H-1,2,3-triazol-1-yl)phenyl]methyl]-4,6,7,9-tetrahydro-3-hydroxy-9,9-dimethyl-4-oxo-], on HIV-integrase, the IC50 was in the range of 2 to 100 nM. For the same compound, the EC50 with NL-Rluc virus fell in the range of 3 to 100 nM.
In the case of `Cc1cnnn1-c1cc(F)ccc1CNC(=O)c1nc2n(c(=O)c1O)CCOC2(C)C` [Example 296, Pyrimido[2,1-c][1,4]oxazine-2-carboxamide, N-[[4-fluoro-2-(5-methyl-1H-1,2,3-triazol-1-yl)phenyl]methyl]-4,6,7,9-tetrahydro-3-hydroxy-9,9-dim ethyl-4-oxo-], the IC50 on HIV-integrase was 2 to 100 nM. Also, the EC50 in the test on NL-Rluc virus is 3 to 100 nM.
For `CC(C)(C)c1cn(-c2cc(F)ccc2CNC(=O)c2nc3n(c(=O)c2O)CCOC3(C)C)nn1` [Example 297, Pyrimido[2,1-c][1,4]oxazine-2-carboxamide, N-[[2-[4-(1,1-dimethylethyl)-1H-1,2,3-triazol-1-yl]-4-fluorophenyl]methyl]-4,6,7,9-tetrahydro-3-hydroxy-9,9-dimethyl-4-oxo-], in that order: 2 to 100 nM and 3 to 100 nM.
Turning to `Cc1nnn(-c2cc(F)ccc2CNC(=O)c2nc3n(c(=O)c2O)CCOC3(C)C)c1C` [Example 298, Pyrimido[2,1-c][1,4]oxazine-2-carboxamide, N-[[2-(4,5-dimethyl-1H-1,2,3-triazol-1-yl)-4-fluorophenyl]methyl]-4,6,7,9-tetrahydro-3-hydroxy-9,9-dimethyl-4-oxo-], the IC50 at HIV-integrase is 2 to 100 nM. Also, the EC50 with NL-Rluc virus is 3 to 100 nM.
For `CC1(C)OCCn2c1nc(C(=O)NCc1ccc(F)cc1-n1cc(CO)nn1)c(O)c2=O` [Example 299, Pyrimido[2,1-c][1,4]oxazine-2-carboxamide, N-[[4-fluoro-2-[4-(hydroxymethyl)-1H-1,2,3-triazol-1-yl]phenyl]methyl]-4,6,7,9-tetrahydro-3-hydroxy-9,9-dimethyl-4-oxo-] the same measures were 2 to 100 nM and 3 to 100 nM.
As to `CC1(C)OCCCn2c1nc(C(=O)NCc1ccc(F)cc1-n1ccnn1)c(O)c2=O` [Example 300, 6H-Pyrimido[2,1-c][1,4]oxazepine-2-carboxamide, N-[[4-fluoro-2-(1H-1,2,3-triazol-1-yl)phenyl]methyl]-4,7,8,10-tetrahydro-3-hydroxy-10,10-dimethyl-4-oxo-], at HIV-integrase, the IC50 was in the range of 2 to 100 nM. In addition, in the test with NL-Rluc virus, the EC50 was in the range of 3 to 100 nM.
With `CC(C)(C)c1cn(-c2cc(F)ccc2CNC(=O)c2nc3n(c(=O)c2O)CCCOC3(C)C)nn1` [Example 301, 6H-Pyrimido[2,1-c][1,4]oxazepine-2-carboxamide, N-[[2-[4-(1,1-dimethylethyl)-1H-1,2,3-triazol-1-yl]-4-fluorophenyl]methyl]-4,7,8,10-tetrahydro-3-hydroxy-10,10-dimethyl-4-oxo-], on HIV-integrase, the IC50 fell in the range of 2 to 100 nM. Further, the EC50 in the test on NL-Rluc virus was in the range of 3 to 100 nM.
On to `Cc1nnn(-c2cc(F)ccc2CNC(=O)c2nc3n(c(=O)c2O)CCOCC3(C)C)c1C` [Example 302, 4H-Pyrimido[1,2-d][1,4]oxazepine-2-carboxamide, N-[[2-(4,5-dimethyl-1H-1,2,3-triazol-1-yl)-4-fluorophenyl]methyl]-6,7,9,10-tetrahydro-3-hydroxy-10,10-dimethyl-4-oxo-], for which the IC50 on HIV-integrase lay in the range of 2 to 100 nM. In addition, the EC50 in the test on NL-Rluc virus fell in the range of 3 to 100 nM.
